The test relates to tumor cell. The test can be described thus: Cytotoxicity assay (MTS). It counts as cell-based. The note with it: 72 h; incubation for three days; read-out: IC50, tumor cell growth inhibition (MTS). Here is the method:
The efficacy of a test compound in inhibiting tumor cell growth was analyzed using a MTS assay. The MTS assay is a calorimetric method for the determination of viable cells in proliferation by using a tetrazolium compound (3-(4,5-dimethylthiazol-2-yl)-5-(3-[…])-2-(4-sulfophenyl)-2H-tetrazolium, inner salt; MTS) and an electron-coupling agent (phenazine methosulfate; PMS). The MTS reagent is converted by dehydrogenase enzymes in metabolically active cells into a formazan that is soluble in a tissue culture medium.
In this assay, tumor cell suspensions (30 μl/well) were seeded into 384-well flat-bottomed tissue culture plates at an appropriate density overnight. A fresh medium (3 μl/well) containing varying concentrations of a test compound or vehicle was added to the culture followed by incubation for three days. At the end of the incubation, all plates were processed simultaneously as follows: The culture medium was aspirated, a MTS cell proliferation assay (Promega) solution (30 μl/well) was added, and the plates were incubated at 37° C. for about 2 hours. Absorbance (a parameter proportional to the cell mass) was measured at 490 nm using a Multiskan (Thermo Electron Corporation, Waltham, Mass.). Inhibition effects were expressed as corrected T/C values for each test compound according to the following equation:
T/C=(T−Blank)/(C−Blank)×100(%),
where T is the mean absorbance of the treated cells, C is the mean absorbance of the controls, and Blank is the mean absorbance of the cell free well.

The source of these data is patent publication US20090214529A9, “KINESIN INHIBITORS” (TaiGen Biotechnology Co., Ltd., priority 2007, published 2009).

Each structure is given as a SMILES string. pIC50: −log10 of the molar value.

In general, pIC50 refers to −log10 of the IC50, conventionally taken in molar units. With `Cc1ccc(C(=O)N(CCN)C(c2nc3c(oc4ccc(Cl)cc43)c(=O)n2Cc2cc(Br)co2)C(C)C)cc1` (centres unmarked) [Compound 99], the pIC50 was more than 4.52. The same measure for `Cc1ccc(C(=O)N(CCN)C(c2nc3c(oc4ccc(Cl)cc43)c(=O)n2Cc2ccc(Cl)o2)C(C)C)cc1` (centres unmarked) [Compound 100]: more than 4.52. With `Cc1ccc(C(=O)N(CCN)C(c2nc3c(oc4ccc(Cl)cc43)c(=O)n2Cc2ccc(C(F)(F)F)o2)C(C)C)cc1` (centres unmarked) [Compound 101], the negative-log IC50 (pIC50) is more than 4.52. In the case of `COC(=O)c1ccc(Cn2c(C(C(C)C)N(CCN)C(=O)c3ccc(C)cc3)nc3c(oc4ccc(F)cc43)c2=O)o1` (centres unmarked) [Compound 102] it was more than 4.52. As to `Cc1ccc(C(=O)N(CCN)C(c2nc3c(oc4ccc(Cl)cc43)c(=O)n2Cc2ccc(Br)o2)C(C)C)cc1` (centres unmarked) [Compound 103], the pIC50 was more than 4.52. Take `Cc1ccc(C(=O)N(CCN)C(c2nc3c(oc4ccc(F)cc43)c(=O)n2Cc2cccc(C)c2)C(C)C)cc1` (centres unmarked) [Compound 104]: the negative-log IC50 (pIC50) is more than 4.52.

As for `Cc1ccc(C(=O)N(CCN)C(c2nc3c(oc4ccc(F)cc43)c(=O)n2Cc2ccccc2)C(C)C)cc1` (centres unmarked) [Compound 105], the pIC50 was more than 4.52.

As for `Cc1ccc(C(=O)N(CCCN)C(c2nc3c(oc4cc(F)ccc43)c(=O)n2Cc2ccccc2)C(C)C)cc1` (centres unmarked) [Compound 106], the pIC50 is more than 4.52. `Cc1ccc(C(=O)N(CCN)C(c2nc3c(oc4cc(Cl)ccc43)c(=O)n2Cc2ccccc2)C(C)C)cc1` (centres unmarked) [Compound 107]: the pIC50 is more than 4.52. On to `Cc1ccc(C(=O)N(CCCN)C(c2nc3c(oc4cc(Cl)ccc43)c(=O)n2Cc2ccccc2)C(C)C)cc1` (centres unmarked) [Compound 108], for which the pIC50 is more than 4.52.

For `Cc1ccc(C(=O)N(CCN)C(c2nc3c(oc4cc(F)ccc43)c(=O)n2Cc2cc(C)cs2)C(C)C)cc1` (centres unmarked) [Compound 109], the pIC50 is more than 4.52. `Cc1ccc(C(=O)N(CCN)C(c2nc3c(oc4cc(F)ccc43)c(=O)n2Cc2ccc(Cl)s2)C(C)C)cc1` (centres unmarked) [Compound 110]: the pIC50 was more than 4.52. Take `Cc1ccc(C(=O)N(CCN)C(c2nc3c(oc4ccc(F)cc43)c(=O)n2Cc2ccc(C#N)o2)C(C)C)cc1` (centres unmarked) [Compound 111]: the pIC50 was more than 4.52. `Cc1ccc(C(=O)N(CCN)C(c2nc3c(oc4ccc(F)cc43)c(=O)n2Cc2cc(C#N)cs2)C(C)C)cc1` (centres unmarked) [Compound 112]: the pIC50 is more than 4.52. With `Cc1ccc(C(=O)N(CCN)C(c2nc3c(oc4ccc(F)cc43)c(=O)n2Cc2ccc(C(N)=O)o2)C(C)C)cc1` (centres unmarked) [Compound 113], the negative logarithm of the IC50 (pIC50) was more than 4.52. In the case of `Cc1ccc(C(=O)N(CCN)C(c2nc3c(oc4ccc(F)cc43)c(=O)n2Cc2ccc(C(=O)N(C)C)s2)C(C)C)cc1` (centres unmarked) [Compound 115], the pIC50 is more than 4.52. The same measure for `CCNC(=O)c1ccc(Cn2c(C(C(C)C)N(CCN)C(=O)c3ccc(C)cc3)nc3c(oc4ccc(F)cc43)c2=O)s1` (centres unmarked) [Compound 116]: more than 4.52. With `CCN(CC)C(=O)c1ccc(Cn2c(C(C(C)C)N(CCN)C(=O)c3ccc(C)cc3)nc3c(oc4ccc(F)cc43)c2=O)s1` (centres unmarked) [Compound 117], the pIC50 was more than 4.52. Turning to `CNC(=O)c1ccc(Cn2c(C(C(C)C)N(CCN)C(=O)c3ccc(C)cc3)nc3c(oc4ccc(F)cc43)c2=O)o1` (centres unmarked) [Compound 118], the pIC50 is more than 4.52.

For the compound `Cc1ccc(C(=O)N(CCN)C(c2nc3c(oc4ccc(F)cc43)c(=O)n2Cc2ccc(C(=O)NC(C)C)o2)C(C)C)cc1` (centres unmarked) [Compound 119], the pIC50 is more than 4.52. With `Cc1ccc(C(=O)N(CCN)C(c2nc3c(oc4ccc(F)cc43)c(=O)n2Cc2ccc(C(=O)NCC(F)F)s2)C(C)C)cc1` (centres unmarked) [Compound 120], the pIC50 is more than 4.52.

On to `C#CCNC(=O)c1ccc(Cn2c(C(C(C)C)N(CCN)C(=O)c3ccc(C)cc3)nc3c(oc4ccc(F)cc43)c2=O)s1` (centres unmarked) [Compound 121], for which the pIC50 was more than 4.52.

Regarding `Cc1ccc(C(=O)N(CCN)C(c2nc3c(oc4ccc(F)cc43)c(=O)n2Cc2cccc(Cl)c2)C(C)C)cc1` (centres unmarked) [Compound 122], the pIC50 was more than 4.52. For `Cc1ccc(Cn2c(C(C(C)C)N(CCN)C(=O)c3ccc(C)cc3)nc3c(oc4ccc(F)cc43)c2=O)cc1` (centres unmarked) [Compound 123], the negative-log IC50 (pIC50) was more than 4.52. Take `Cc1ccc(C(=O)N(CCN)C(c2nc3c(oc4ccc(F)cc43)c(=O)n2Cc2cccc(Br)c2)C(C)C)cc1` (centres unmarked) [Compound 124]: the pIC50 was more than 4.52. Consider `Cc1ccc(C(=O)N(CCN)C(c2nc3c(oc4ccc(Cl)cc43)c(=O)n2Cc2ccco2)C(C)C)cc1` (centres unmarked) [Compound 125], for which the pIC50 was more than 4.52. The same measure for `Cc1ccc(C(=O)N(CCN)C(c2nc3c(oc4ccc(Cl)cc43)c(=O)n2Cc2ccoc2)C(C)C)cc1` (centres unmarked) [Compound 126]: more than 4.52; for `Cc1ccc(C(=O)N(CCN)C(c2nc3c(oc4ccc(F)cc43)c(=O)n2Cc2ccco2)C(C)C)cc1` (centres unmarked) [Compound 127]: more than 4.52. In the case of `Cc1ccc(C(=O)N(CCN)C(c2nc3c(oc4ccc(F)cc43)c(=O)n2Cc2ccoc2)C(C)C)cc1` (centres unmarked) [Compound 128], the negative-log IC50 (pIC50) was more than 4.52.

`Cc1ccc(C(=O)N(CCN)C(c2nc3c(oc4ccc(Cl)cc43)c(=O)n2Cc2cc(C#N)cs2)C(C)C)cc1` (centres unmarked) [Compound 129]: the pIC50 was more than 4.52. Consider `Cc1ccc(C(=O)N(CCN)C(c2nc3c(oc4ccc(F)cc43)c(=O)n2Cc2ccc(CO)cc2)C(C)C)cc1` (centres unmarked) [Compound 130], for which the negative logarithm of the IC50 (pIC50) is more than 4.52. In the case of `Cc1ccc(C(=O)N(CCN)C(c2nc3c(oc4ccc(Cl)cc43)c(=O)n2Cc2ccc(/C=C/O)s2)C(C)C)cc1` (centres unmarked) [Compound 134] it was more than 4.52. With `Cc1ccc(C(=O)N(CCCN)C(c2nc3c(sc4ccccc43)c(=O)n2Cc2ccccc2)C(C)C)cc1` (centres unmarked) [Compound 135], the pIC50 is more than 4.52.

With `Cc1ccc(C(=O)N(CCCN)C(c2nc3c(sc4ccc(F)cc43)c(=O)n2Cc2ccccc2)C(C)C)cc1` (centres unmarked) [Compound 136], the pIC50 was more than 4.52. Consider `Cc1ccc(C(=O)N(CCCN)C(c2nc3c(sc4ccc(F)cc43)c(=O)n2Cc2ccccc2)C(C)C)cc1F` (centres unmarked) [Compound 137], for which the pIC50 is more than 4.52. In the case of `Cc1ccc(C(=O)N(CCCN)C(c2nc3c(sc4ccccc43)c(=O)n2Cc2ccc(Cl)s2)C(C)C)cc1` (centres unmarked) [Compound 138], the pIC50 was more than 4.52. Take `CC(C)C(c1nc2c(sc3ccc(F)cc32)c(=O)n1Cc1ccccc1)N(CCCN)C(=O)c1ccc(Cl)cc1` (centres unmarked) [Compound 139]: the pIC50 was more than 4.52. As to `CC(C)C(c1nc2c(sc3ccc(F)cc32)c(=O)n1Cc1ccccc1)N(CCCN)C(=O)c1ccc(Br)cc1` (centres unmarked) [Compound 140], the pIC50 is more than 4.52. `CC(C)C(c1nc2c(sc3ccccc32)c(=O)n1Cc1ccc(Cl)s1)N(CCCN)C(=O)c1ccc(Br)cc1` (centres unmarked) [Compound 141]: the pIC50 was more than 4.52. On to `Cc1ccc(C(=O)N(CCCN)C(c2nc3c(sc4ccccc43)c(=O)n2Cc2ccc(Cl)s2)C(C)C)cc1F` (centres unmarked) [Compound 142], for which the negative-log IC50 (pIC50) is more than 4.52.

With `CC(C)C(c1nc2c(sc3ccccc32)c(=O)n1Cc1ccc(Cl)s1)N(CCCN)C(=O)c1ccc(Cl)cc1` (centres unmarked) [Compound 143], the pIC50 is more than 4.52. Take `Cc1ccc(C(=O)N(CCCN)C(c2nc3c(sc4ccccc43)c(=O)n2Cc2ccc(Br)s2)C(C)C)cc1` (centres unmarked) [Compound 144]: the pIC50 is more than 4.52.

On to `CC(C)C(c1nc2c(sc3ccccc32)c(=O)n1Cc1ccc(Br)s1)N(CCCN)C(=O)c1ccc(Br)cc1` (centres unmarked) [Compound 145], for which the pIC50 was more than 4.52. For the compound `Cc1ccc(C(=O)N(CCCN)C(c2nc3c(sc4ccccc43)c(=O)n2Cc2ccc(Br)s2)C(C)C)cc1F` (centres unmarked) [Compound 146], the negative logarithm of the IC50 (pIC50) is more than 4.52. Turning to `CC(C)C(c1nc2c(sc3ccccc32)c(=O)n1Cc1ccc(Br)s1)N(CCCN)C(=O)c1ccc(Cl)cc1` (centres unmarked) [Compound 147], the pIC50 was more than 4.52. Take `Cc1ccc(C(=O)N(CCCN)C(c2nc3c(sc4ccccc43)c(=O)n2Cc2cccs2)C(C)C)cc1` (centres unmarked) [Compound 148]: the pIC50 was more than 4.52. As to `Cc1ccc(C(=O)N(NCCN)C(c2nc3c(sc4ccccc43)c(=O)n2Cc2ccc(Br)s2)C(C)C)cc1` (centres unmarked) [Compound 149], the pIC50 was more than 4.52. In the case of `CC(C)C(c1nc2n(c(=O)c1Cc1ccccc1)Cc1ccccc1-2)N(CCCN)C(=O)c1ccc(Cl)cc1` (centres unmarked) [Compound 151] it was more than 4.52; in that of `Cc1ccc(C(=O)N(CCCN)C(c2nc3n(c(=O)c2Cc2ccccc2)Cc2ccccc2-3)C(C)C)cc1F` (centres unmarked) [Compound 152], more than 4.52. `Cc1ccc(C(=O)N(CCC2(N)CCC2)C(c2nc3n(c(=O)c2Cc2ccccc2)Cc2ccccc2-3)C(C)C)cc1` (centres unmarked) [Compound 153]: the pIC50 was more than 4.52. On to `Cc1ccc(C(=O)N(CCCN)C(c2nc3n(c(=O)c2Cc2ccccc2)Cc2ccccc2-3)C(C)C)c(F)c1F` (centres unmarked) [Compound 154], for which the pIC50 was more than 4.52. Consider `CC(C)C(c1nc2n(c(=O)c1Cc1ccccc1)Cc1ccccc1-2)N(CCCN)C(=O)c1ccc(Br)cc1` (centres unmarked) [Compound 155], for which the negative-log IC50 (pIC50) was more than 4.52. For `Cc1ccc(C(=O)N(CCCN)C(c2nc3c(sc4ncccc43)c(=O)n2Cc2ccccc2)C(C)C)cc1` (centres unmarked) [Compound 156], the pIC50 is more than 4.52. `Cc1ccc(C(=O)N(CCCN)C(c2nc3c([nH]c4ccc(Br)cc43)c(=O)n2Cc2ccccc2)C(C)C)cc1` (centres unmarked) [Compound 157]: the negative logarithm of the IC50 (pIC50) was more than 4.52.

In the case of `Cc1ccc(C(=O)N(CCCN)C(c2nc3c([nH]c4ccccc43)c(=O)n2Cc2ccccc2)C(C)C)cc1` (centres unmarked) [Compound 158], the pIC50 is more than 4.52.

Take `CCC(c1nn2c(cc3ccccc32)c(=O)n1Cc1ccccc1)N(CCCN)C(=O)c1ccc(C)cc1` (centres unmarked) [Compound 159]: the pIC50 is more than 4.52.
